What is called IC50 is the concentration at which inhibition is half-maximal.

The record followed here is PubChem BioAssay AID1159564 (GlaxoSmithKline (GSK), 2015).

Each structure is given as a SMILES string. Active and inactive are the calls of the source. No rule for the calls is given here. Some results are limits rather than exact numbers.

The experiment concerns L. donovani-infected THP-1 macrophages, intracellular amastigote imaging. Kind of experiment: intracellular L. donovani amastigote inhibition, imaging, THP-1 host macrophages, host toxicity (AID 1159564).
[1] abbreviates: measured here: THP-1 host cell toxicity.
The mark [2] stands for this setting: measured here: amastigotes per macrophage.

On to `CCCc1cc(C(=O)Nc2ncc(-c3cccc(Br)c3)n2C)n[nH]1`, for which the IC50 was 5 µM. The IC50 under setting [1] came out at 32 µM. The compound further displayed an IC50 under setting [2] of 4 µM.
The like results for `Cc1cc(-c2cccc3ccccc23)nc2nc(N)nc(N)c12` were, in that order, 5 µM, 50 µM and 1 µM.
The like results for `O=C(NCC1CCCCC1)c1cc(=O)c2ccccc2o1` were, in that order, 16 µM, less than 50 µM and 6.3 µM.
As for `CN(C)Cc1cccc(Nc2nccc(-c3ccc(NCCN)c(C#N)c3)n2)c1`, the IC50 is 1.3 µM. Also, the IC50 under setting [1] stood at 6.3 µM. Under setting [2], this compound gave an IC50 of 0.5 µM.
For the compound `Nc1nc(-c2ccccn2)nc(N)c1Cc1c(F)cccc1Cl`, the IC50 is 1.3 µM. Further, the IC50 under setting [1] was 32 µM. The compound also displayed an IC50 under setting [2] of 1 µM.
In the case of `O=C(Nc1nc(-c2ccc(F)cc2)cs1)c1ccc([N+](=O)[O-])s1`, the IC50 is 1.3 µM. Also, the IC50 under setting [1] came to 7.9 µM. For the same compound, the IC50 under setting [2] came out at 1 µM.
For `CC(C)(C)CC(=O)NCCc1csc(-c2ccc(F)cc2)n1` the same measures were 32 µM, 16 µM and 16 µM.
Consider `N#Cc1ccc(S(=O)(=O)N2CCN(Cc3cccc(-c4ccncc4)c3)CC2)cc1`, for which the IC50 is > 50 µM (inactive). The same compound showed an IC50 under setting [1] greater than 50 µM. For the same compound, under setting [2], the half-inhibitory concentration (IC50) stood at 1.3 µM.
With `CCOc1ccc2nc(NC(=O)c3ccc([N+](=O)[O-])s3)sc2c1`, the IC50 was 6.3 µM. Further, the IC50 under setting [1] is greater than 50 µM. Also, the IC50 under setting [2] was 5 µM.
Take `CC(C)Oc1cccc(N2CCC(C(=O)N3CCCN(C(C)C)CC3)CC2)c1`: the IC50 is > 50 µM (inactive). In addition, the IC50 under setting [1] was greater than 50 µM. Further, the IC50 under setting [2] was greater than 50 µM.
`Nc1cc(-c2ccc3ncnc(N4CCOCC4)c3c2)cnc1N`: the IC50 was 10 µM. Under setting [1], this compound registered an IC50 greater than 50 µM. The compound further gave an IC50 under setting [2] of 1.3 µM.
For `O=C(CN(Cc1ccccn1)Cc1ccccn1)NC1Cc2ccccc2C1` the same measures were 5 µM, greater than 79 µM and 5 µM.
On to `COc1ccc(OC)c(NC(=O)c2ccc([N+](=O)[O-])o2)c1`, for which the IC50 was 32 µM. Besides, the IC50 under setting [1] was 20 µM. Under setting [2], this compound had an IC50 of 16 µM.
In the case of `CCCCn1nnnc1CSc1nc(C)cc(C)c1C#N`, the IC50 is 4 µM. Under setting [1], this compound showed an IC50 greater than 50 µM. The compound further registered an IC50 under setting [2] of 3.2 µM.
For `CCN(Cc1nc2ccc(C(=O)N3CCN(c4ncccn4)CC3)cc2[nH]1)C1CCCc2cccnc21` (configuration not stated) the same measures were 4 µM, 20 µM and 1.6 µM.
Turning to `CN(Cc1nnnn1C1CCN(Cc2ccc(-n3ccnc3)cc2)CC1)c1ccc(F)cc1F`, the IC50 was > 50 µM (inactive). Also, the half-inhibitory concentration (IC50) under setting [1] is greater than 50 µM. The compound also displayed an IC50 under setting [2] of 16 µM.
For `O=C(c1cnn(-c2ccccc2)n1)N1CCCC(n2ccnc2)C1` (configuration not stated), the IC50 was > 50 µM (inactive). The compound also came in with an IC50 under setting [1] greater than 50 µM. Also, the IC50 under setting [2] came out at 0.63 µM.
On to `O=C1NCCn2ccc(Nc3nc(NC4CCC(O)CC4)ncc3Cl)c21` (configuration not stated), for which the IC50 was 1 µM. The compound also yielded an IC50 under setting [1] of 0.4 µM. Under setting [2], this compound came in with a half-inhibitory concentration (IC50) of 0.63 µM.
The like results for `O=C(Nc1ccc(-c2nc3ccccc3c(=O)[nH]2)cc1)c1cccs1` were, in that order, > 50 µM (inactive), greater than 50 µM and greater than 50 µM.
As for `O=C(CSc1nnc2ccc(-c3ccc(F)cc3)nn12)N1CCCCC1`, the IC50 is > 50 µM (inactive). Under setting [1], this compound came in with an IC50 of 6.3 µM. Moreover, under setting [2], the IC50 is greater than 50 µM.
On to `CN(C)c1ccc(-c2cc3nccnc3c(OC[C@H]3CCCNC3)n2)cn1`, for which the IC50 is 20 µM. This compound showed an IC50 under setting [1] of 20 µM. The compound further had an IC50 under setting [2] of 25 µM.
Consider `Cc1nc2nc(C)c(Cc3ccc(C(C)C)cc3)c(=O)n2[nH]1`, for which the IC50 is 32 µM. The same compound gave a 50% inhibitory concentration (IC50) under setting [1] greater than 50 µM. This compound registered an IC50 under setting [2] of 16 µM.
As for `CC(=O)NC1(c2ccccc2)CCN(CC(=O)Nc2ccccc2-c2ccccc2)CC1`, the IC50 is > 50 µM (inactive). The IC50 under setting [1] is greater than 50 µM. The same compound gave an IC50 under setting [2] of 40 µM.
For `CC(C)c1cc(Nc2cc(Cc3ccccc3)nc(NC3CCC(O)CC3)n2)n[nH]1` (configuration not stated), the IC50 was 0.063 µM. This compound came in with an IC50 under setting [1] of 0.02 µM. Under setting [2], this compound displayed an IC50 of 0.04 µM.
Regarding `Cc1ccc(C)c(-n2nnnc2Sc2nc([N+](=O)[O-])nn2C)c1`, the IC50 was > 50 µM (inactive). Further, under setting [1], the IC50 is greater than 50 µM. Besides, the IC50 under setting [2] was greater than 50 µM.
Regarding `Nc1nc(-c2ccccn2)nc(-n2nc(-c3cccc(C(F)(F)F)c3)cc2N)n1`, the IC50 is 0.79 µM. In addition, the IC50 under setting [1] was 5 µM. Under setting [2], this compound returned an IC50 of 0.5 µM.
Turning to `Cc1cc2cc(CNc3ccc4c(c3)OCO4)c(=O)n(CCO)c2cc1C`, the IC50 is 0.5 µM. Moreover, the IC50 under setting [1] came out at 40 µM. The compound also displayed an IC50 under setting [2] of 0.25 µM.
Consider `N#Cc1c(Oc2cccc(Cl)c2)cccc1[N+](=O)[O-]`, for which the IC50 was 10 µM. The IC50 under setting [1] was greater than 50 µM. In addition, under setting [2], the IC50 is 7.9 µM.
Turning to `O=[N+]([O-])c1cccc(Nc2cncc(-c3ccccc3CO)c2)c1`, the IC50 is > 50 µM (inactive). Under setting [1], this compound registered an IC50 greater than 50 µM. Also, the half-inhibitory concentration (IC50) under setting [2] is greater than 50 µM.
`Cc1cc(Br)cc(C(=O)c2c(C(C)C)c(=O)[nH]c(=O)n2Cc2ccnc(N)c2)c1`: the IC50 was 32 µM. Besides, the IC50 under setting [1] worked out at 40 µM. The IC50 under setting [2] was 20 µM.
Regarding `COc1ccc(C(=O)Nc2cc(C(F)(F)F)ccc2N2CCOCC2)c(OC)c1`, the IC50 is 10 µM. Also, the IC50 under setting [1] was determined as 13 µM. Moreover, under setting [2], the IC50 amounted to 7.9 µM.
For the compound `CN(Cc1cc2ccccc2s1)c1ncc2c(N)nc(N)nc2n1`, the IC50 was 32 µM. The compound further registered an IC50 under setting [1] of 25 µM. This compound had an IC50 under setting [2] of 25 µM.
Take `COc1ncc(-c2ccc3nccc(-c4ccncc4)c3c2)cc1NS(C)(=O)=O`: the IC50 is 2.5 µM. Further, the IC50 under setting [1] stood at 3.2 µM. Moreover, the IC50 under setting [2] worked out at 0.63 µM.
On to `O=C(Nc1ccccc1C(=O)Nc1ccccn1)c1ccco1`, for which the IC50 was > 50 µM (inactive). Under setting [1], the IC50 is greater than 50 µM. Under setting [2], this compound showed an IC50 greater than 50 µM.
Regarding `COc1cccc(C(=O)[C@H]2C[C@@H]2CN(Cc2cccnc2)Cc2cccnc2)c1`, the IC50 is > 50 µM (inactive). Besides, the IC50 under setting [1] amounted to 40 µM. Moreover, the IC50 under setting [2] turned out to be 7.9 µM.
`CCOc1ccc(NC(=O)c2ccc(NC(=O)NC3CCCCC3)cc2)cc1`: the IC50 is 7.9 µM. Besides, the IC50 under setting [1] is 4 µM. Besides, under setting [2], the IC50 was determined as 6.3 µM.
As to `COCc1cc(Nc2ccccc2)nc(-c2ccccn2)n1`, the IC50 was 7.9 µM. The same compound gave an IC50 under setting [1] greater than 50 µM. Moreover, the IC50 under setting [2] was determined as 5 µM.
With `CCNc1cc(-c2ccccn2)nc(Nc2ccccc2)n1`, the IC50 is 0.79 µM. Under setting [1], the IC50 is 20 µM. Also, the IC50 under setting [2] turned out to be 0.63 µM.
Consider `COc1ccc2nc(N(Cc3cccnc3)C(=O)C3CCC3)sc2c1`, for which the IC50 was > 50 µM (inactive). Also, the IC50 under setting [1] was greater than 50 µM. Under setting [2], this compound showed an IC50 of 50 µM.
The like results for `Cc1ccc(NC(=O)c2ccc(Cl)c(NC(=O)c3ccc([N+](=O)[O-])cc3)c2)cc1` were, in that order, > 50 µM (inactive), greater than 50 µM and greater than 50 µM.
The like results for `O=C(c1cccc(Nc2ncc(-c3ccc4c(c3)OCO4)cn2)c1)N1CCOCC1` were, in that order, 4 µM, 63 µM and 1.6 µM.
`NC(N)=Nc1nc(-c2ccc(NC(N)=NCCN3CCCC3)cc2)cs1`: the IC50 is > 50 µM (inactive). Under setting [1], this compound showed an IC50 greater than 50 µM. The IC50 under setting [2] was greater than 50 µM.
As for `Cc1[nH]n2c(=O)c3c(nc2c1-c1ccc(Cl)cc1)CCCC3`, the IC50 is > 50 µM (inactive). Besides, the IC50 under setting [1] was 13 µM. The same compound returned an IC50 under setting [2] greater than 50 µM.
For `NCc1ccc2c(Cl)cc(Cl)c(O)c2n1`, the IC50 was 2 µM. Further, the IC50 under setting [1] worked out at 20 µM. The same compound came in with an IC50 under setting [2] of 2 µM.
For the compound `CS(=O)(=O)c1cccc(CNC(=O)c2cncc(N3CCN(c4ccc(F)cc4)CC3)c2)c1`, the IC50 is > 50 µM (inactive). Under setting [1], the IC50 is greater than 50 µM. Moreover, the IC50 under setting [2] is greater than 50 µM.
With `CN(C)S(=O)(=O)c1ccc(-c2cnc(N)c(-c3nc4ccc(F)cc4[nH]3)c2)cc1`, the IC50 is 1.6 µM. For the same compound, the IC50 under setting [1] turned out to be 4 µM. This compound came in with an IC50 under setting [2] of 0.63 µM.
As to `O=C1CN(C2CCCc3c(OCc4ccncc4)cccc32)C(=O)N1C1CCCCC1` (configuration not stated), the IC50 is > 50 µM (inactive). The compound also displayed an IC50 under setting [1] greater than 50 µM. Also, the IC50 under setting [2] was greater than 50 µM.
Take `CN(Cc1nc2ccccc2s1)C(=O)C=Cc1cc2ccccc2o1`: the IC50 was > 50 µM (inactive). Moreover, the IC50 under setting [1] was greater than 50 µM. The compound further displayed an IC50 under setting [2] of 16 µM.
The like results for `O=C(Nc1nc(-c2ccc(S(=O)(=O)N3CCOCC3)cc2)cs1)c1ccc([N+](=O)[O-])cc1` were, in that order, > 50 µM (inactive), 4 µM and 2.5 µM.
With `COc1ncc(-c2ccc3nccc(-c4ccncc4)c3c2)cc1NS(=O)(=O)C1CC1`, the IC50 was 1.3 µM. Besides, the IC50 under setting [1] came out at 1 µM. Under setting [2], this compound yielded an IC50 of 0.32 µM.
The like results for `Cc1[nH]nc2c1C(c1ccc(OCc3ccccc3F)cc1)SCC(=O)N2` (configuration not stated) were, in that order, > 50 µM (inactive), greater than 50 µM and greater than 50 µM.
On to `CCN(CC)S(=O)(=O)c1ccc(C(=O)Nc2cc(C)nn2-c2nc(C)c(C)c(=O)[nH]2)cc1`, for which the IC50 was > 50 µM (inactive). For the same compound, the half-inhibitory concentration (IC50) under setting [1] amounted to 3.2 µM. The compound also showed an IC50 under setting [2] greater than 50 µM.
For `COc1cnc2ccc(=O)n(CCN3CCC(NC(=O)Cc4ccc(Cl)c(Cl)c4)CC3)c2c1`, the IC50 was 40 µM. Moreover, the IC50 under setting [1] came to 25 µM. In addition, the IC50 under setting [2] is 5 µM.
Take `CNc1cc(C)nc(C2CN(C(=O)c3n[nH]c4ccccc34)CCO2)c1` (configuration not stated): the IC50 is > 50 µM (inactive). The IC50 under setting [1] was greater than 50 µM. The same compound registered an IC50 under setting [2] greater than 50 µM.
